As a reminder, the EC50 is the concentration giving half of the maximal effect. In general, Emax refers to the size of the effect at its maximum, as opposed to the concentration needed.

Where only a bound is given, the exact number is not on record here.

Assay [1] addresses T1, human mAChR M1 (Homo sapiens, UniProt P11229).
T1 construct: host or cells: CHO-K1 cells (ATCC), stably transfected using Lipofectamine2000
T1 sequence (P11229 1-460): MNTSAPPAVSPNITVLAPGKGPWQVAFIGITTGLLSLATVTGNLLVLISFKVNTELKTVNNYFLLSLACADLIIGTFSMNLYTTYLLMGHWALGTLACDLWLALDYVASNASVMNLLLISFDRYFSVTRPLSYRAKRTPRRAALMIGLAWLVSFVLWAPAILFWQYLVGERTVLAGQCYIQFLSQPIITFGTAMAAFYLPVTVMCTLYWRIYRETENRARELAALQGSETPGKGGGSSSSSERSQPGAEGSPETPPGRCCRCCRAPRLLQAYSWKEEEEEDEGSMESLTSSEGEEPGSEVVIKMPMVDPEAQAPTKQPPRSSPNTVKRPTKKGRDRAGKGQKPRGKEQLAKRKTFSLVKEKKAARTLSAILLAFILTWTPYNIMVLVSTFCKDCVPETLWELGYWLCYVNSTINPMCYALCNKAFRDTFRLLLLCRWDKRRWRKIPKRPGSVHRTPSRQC
Put plainly: mAChR M1 cell-based functional assay (calcium mobilization), PAM activity: increase in the EC20 acetylcholine response. To be noted: CHO-K1 cells expressing hM1; potentiation of EC20 acetylcholine response. The gist of the method: (§1)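 CHO-K1 cells stably expressing hM1, loaded with Fluo-4 AM; calcium flux read on FDSS 6000. Compound (11-point, 1:3 CRC) added at 4 s, EC20 acetylcholine at 144 s, EC80 at 230 s; agonism from response to compound alone, PAM from increase in EC20 response; Emax relative to acetylcholine maximum, four-parameter fit.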

Assay [2] deals with T1, human mAChR M1. Nature of the assay: mAChR M1 cell-based functional assay (calcium mobilization), agonist activity upon compound addition. The settings on record: CHO-K1 cells expressing hM1; for EC50: compound alone, before acetylcholine addition; for Emax: relative to the maximum for acetylcholine. The gist of the method:
as §1
For orientation: Calcium assays in cells follow changes in intracellular calcium, usually with a dye or a luminescent sensor.

Turning to `O=C(N[C@H]1CCCC[C@@H]1O)c1cn(Cc2ccc(-n3cccn3)cc2)c(=O)c2nccnc12` [Compound A53, 6-(4-(1H-pyrazol-1-yl)benzyl)-N-((1S,2S)-2-hydroxycyclohexyl)-5-oxo-5,6-dihydropyrido[3,4-b]pyrazine-8-carboxamide], in assay [1], the concentration giving a half-maximal response (EC50) amounted to 9.64 µM and the Emax came out at 48%. Besides, in assay [2], the EC50 is more than 10 µM and the Emax was less than 5%.

With `Cn1ccc(-c2ccc(Cn3cc(C(=O)N[C@H]4CCCCC[C@@H]4O)c4sccc4c3=O)c(F)c2)n1` [Compound D28, 5-(2-fluoro-4-(1-methyl-1H-pyrazol-3-yl)benzyl)-N-((1S,2S)-2-hydroxycycloheptyl)-4-oxo-4,5-dihydrothieno[3,2-c]pyridine-7-carboxamide], the 50% effective concentration (EC50) in assay [1] and in assay [2] was more than 10 µM each time. Also, the maximum response (Emax) is 40% in assay [1] and less than 5% in assay [2].

Consider `Cc1cnn(C)c1-c1ccc(Cn2cc(C(=O)N[C@H]3CCCC[C@@H]3O)c3nccn3c2=O)c(F)c1` [Compound B35, 6-(4-(1,4-dimethyl-1H-pyrazol-5-yl)-2-fluorobenzyl)-N-((1S,2S)-2-hydroxycyclohexyl)-5-oxo-5,6-dihydroimidazo[1,2-c]pyrimidine-8-carboxamide], for which, in assay [1], the EC50 was found to be 7.02 µM and the Emax stood at 44%. Besides, in assay [2], the concentration giving a half-maximal response (EC50) was more than 10 µM and the Emax is less than 5%.

Take `Cn1cc2c(-c3cc(F)c(Cn4cc(C(=O)N[C@H]5CCOC[C@@H]5O)c5ncccc5c4=O)c(F)c3)cccc2n1` [Compound A21, 6-(2,6-difluoro-4-(2-methyl-2H-indazol-4-yl)benzyl)-N-((3R,4S)-3-hydroxytetrahydro-2H-pyran-4-yl)-5-oxo-5,6-dihydro-1,6-naphthyridine-8-carboxamide]: in assay [1], the EC50 was 0.019 µM and the Emax stood at 72%. For the same molecule, in assay [2], the EC50 worked out at 1.23 µM and the Emax worked out at 31%.

As for `Cn1cc(-c2ccc(Cn3cc(C(=O)N[C@H]4CCC[C@@H]4O)c4nccnc4c3=O)c(F)c2)cn1` [Compound A79, 6-(2-fluoro-4-(1-methyl-1H-pyrazol-4-yl)benzyl)-N-((1S,2S)-2-hydroxycyclopentyl)-5-oxo-5,6-dihydropyrido[3,4-b]pyrazine-8-carboxamide], in assay [1], the concentration giving a half-maximal response (EC50) was not below 10 µM and the Emax stood at 51%. Further, in assay [2], the EC50 is more than 10 µM and the Emax is less than 5%.

As to `Cn1cc(-c2ccc(Cn3cc(C(=O)N[C@H]4CCC[C@@H]4O)c4ncccc4c3=O)cn2)cn1` [Compound A17, N-((1S,2S)-2-hydroxycyclopentyl)-6-((6-(1-methyl-1H-pyrazol-4-yl)pyridin-3-yl)methyl)-5-oxo-5,6-dihydro-1,6-naphthyridine-8-carboxamide], in assay [1], the EC50 was not below 10 µM and the Emax was determined as 55%. In assay [2], the EC50 was more than 10 µM and the maximal effect (Emax) was less than 5%.

Turning to `Cc1ncc(-c2cc(F)c(Cn3cc(C(=O)N[C@H]4CCOC[C@@H]4O)c4ncccc4c3=O)c(F)c2)s1` [Compound A51, 6-(2,6-difluoro-4-(2-methylthiazol-5-yl)benzyl)-N-((3R,4S)-3-hydroxytetrahydro-2H-pyran-4-yl)-5-oxo-5,6-dihydro-1,6-naphthyridine-8-carboxamide], in assay [1], the concentration for a half-maximal effect (EC50) came out at 1.68 µM and the Emax is 75%. Moreover, in assay [2], the EC50 was more than 10 µM and the maximal response (Emax) was less than 5%.

As to `Cn1cc2c(-c3cc(F)c(Cn4cc(C(=O)N[C@H]5CCC[C@@H]5O)c5sccc5c4=O)c(F)c3)cccc2n1` [Compound D32, 5-(2,6-difluoro-4-(2-methyl-2H-indazol-4-yl)benzyl)-N-((1S,2S)-2-hydroxycyclopentyl)-4-oxo-4,5-dihydrothieno[3,2-c]pyridine-7-carboxamide], the EC50 in assay [1] was 7.73 µM; in assay [2] it was more than 10 µM. In addition, the maximum response (Emax) in assay [1] was 40%; in assay [2], less than 5%.

For `O=C(N[C@H]1CCCC[C@@H]1O)c1cn(Cc2ccc(-c3cscn3)cc2)c(=O)c2cccnc12` [Compound A59, N-((1S,2S)-2-hydroxycyclohexyl)-5-oxo-6-(4-(thiazol-4-yl)benzyl)-5,6-dihydro-1,6-naphthyridine-8-carboxamide], in assay [1], the EC50 was found to be 0.42 µM and the Emax stood at 45%. Further, in assay [2], the EC50 is more than 10 µM and the Emax was less than 5%.

Take `O=C(N[C@H]1CCCC[C@@H]1O)c1cn(Cc2ccc(-n3cccn3)cc2)c(=O)c2ccoc12` [Compound D3, 5-(4-(1H-pyrazol-1-yl)benzyl)-N-((1S,2S)-2-hydroxycyclohexyl)-4-oxo-4,5-dihydrofuro[3,2-c]pyridine-7-carboxamide]: in assay [1], the EC50 was 5.12 µM and the Emax worked out at 62%. Further, in assay [2], the half-maximal effective concentration (EC50) was more than 10 µM and the Emax is less than 5%.

On to `Cn1cc2c(-c3cc(F)c(Cn4cc(C(=O)N[C@H]5CCOC[C@@H]5O)c5occc5c4=O)c(F)c3)cccc2n1` [Compound D18, 5-(2,6-Difluoro-4-(2-methyl-2H-indazol-4-yl)benzyl)-N-((3R,4S)-3-hydroxytetrahydro-2H-pyran-4-yl)-4-oxo-4,5-dihydrofuro[3,2-c]pyridine-7-carboxamide], for which the half-maximal effective concentration (EC50) amounted to 0.28 µM in assay [1] and 2.27 µM in assay [2]. The results for the maximum response (Emax) in assay [1] and in assay [2] were 85% and 11%, respectively.

For `Cn1cc2c(-c3cc(F)c(Cn4cc(C(=O)N[C@H]5CC[C@@H]5O)c5nccnc5c4=O)c(F)c3)cccc2n1` [Compound A69, 6-(2,6-difluoro-4-(2-methyl-2H-indazol-4-yl)benzyl)-N-((1S,2S)-2-hydroxycyclobutyl)-5-oxo-5,6-dihydropyrido[3,4-b]pyrazine-8-carboxamide], the EC50 in assay [1] is 3.89 µM; in assay [2], more than 10 µM. For the same molecule, the maximal effect (Emax) in assay [1] was 57%; in assay [2] it was less than 5%.

With `Cn1ccc(-c2ccc(Cn3cc(C(=O)N[C@H]4CCOC[C@@H]4O)c4occc4c3=O)c(F)c2)n1` [Compound D6, 5-(2-fluoro-4-(1-methyl-1H-pyrazol-3-yl)benzyl)-N-((3R,4S)-3-hydroxytetrahydro-2H-pyran-4-yl)-4-oxo-4,5-dihydrofuro[3,2-c]pyridine-7-carboxamide], in assay [1], the EC50 was more than 10 µM and the Emax amounted to 68%. In assay [2], the EC50 was more than 10 µM and the Emax was less than 5%.

Take `Cn1nccc1-c1cc(F)c(Cn2cc(C(=O)N[C@H]3CCOC[C@@H]3O)c3ncccc3c2=O)c(F)c1` [Compound A47, 6-(2,6-difluoro-4-(1-methyl-1H-pyrazol-5-yl)benzyl)-N-((3R,4S)-3-hydroxytetrahydro-2H-pyran-4-yl)-5-oxo-5,6-dihydro-1,6-naphthyridine-8-carboxamide]: the EC50 in assay [1] was 1.09 µM; in assay [2] it was more than 10 µM. In addition, the maximum response (Emax) was 57% in assay [1] and less than 5% in assay [2].

Turning to `Cn1cc(-c2ccc(Cn3cc(C(=O)N[C@H]4CCC[C@@H]4O)c4nccn4c3=O)c(F)c2)cn1` [Compound B7, 6-(2-fluoro-4-(1-methyl-1H-pyrazol-4-yl)benzyl)-N-((1S,2S)-2-hydroxycyclopentyl)-5-oxo-5,6-dihydroimidazo[1,2-c]pyrimidine-8-carboxamide], in assay [1], the EC50 came out at 0.24 µM and the maximal effect (Emax) turned out to be 73%. Besides, in assay [2], the Emax is 48%.

The record behind these values is US20220041606A1, “POSITIVE ALLOSTERIC MODULATORS OF THE MUSCARINIC ACETYLCHOLINE RECEPTOR M1” (Vanderbilt University, priority 2020, published 2022).
